The values below come from article PMC11623990, “Deferasirox and Ciprofloxacin: Potential Ternary Complex Formation With Ferric Iron, Pharmacodynamic, and Pharmacokinetic Interactions” (The Scientific World Journal, 2024).

In brackets after ≈: the same amount, converted by molar mass.

On the set-up of series [1]: method as in PMID 10508341, doi:10.1002/ejic.200400363. Particulars: cited from earlier work.
Series [2] has as its system iron-overloaded rat model. Briefly: Level of iron in blood and other tissues determined by AAS. The format is in vivo, Wistar rats. Particulars: (SD), n = 8. On the procedure:
(§1) Ethical approval of the study protocol was obtained from the Institutional Review Board at the University of Jordan (Approval No. 47–2022) on 17th May 2022 (document No. 19/2022/289). Throughout the study, all animals were housed, fed, and treated in accordance with The University of Jordan ethical guidelines for animal protection. The animal house of the University of Jordan, which is equipped with proper ventilation and temperature control (25 ± 4°C) systems, was utilized for the study. Each animal was placed in a separate standard cage. Sixteen male Wistar rats (6 weeks old, average weight 220 ± 10 g) were subjected to an iron-enriched diet containing 2.5% carbonyl iron according to Ackerman et al. for 6 weeks. Another group of eight rats (control group) was subjected to an ordinary pellet diet for the same period. The 16 animals with iron fortified diets were then separated into two groups of eight: the DFX group which received DFX alone and the DFX-CP group which received DFX plus CP, for 6 days. Drugs were given orally through proper mixing with food so that on average, each animal would ingest 30 mg/kg DFX daily incorporated within 15 gm of dried food. For the DFX-CP group, the 15 g dried food contained CP equivalent to 30 mg/kg of animal weight. Blood samples were collected from animals using the orbital venous plexus bleeding method with the aid of ether anesthesia in special EDTA tubes on days 1, 3, and 6 after initiation of the drug treatment. Blood samples were centrifuged, and plasma was collected in Eppendorf tubes and kept at −80°C until time of analysis for DFX. On the sixth day of the treatment, animals were sacrificed by cervical dislocation with the aid of mild anesthesia. Liver, heart, kidney, spleen, and the whole gastrointestinal tract (GIT) of all animals were collected and immediately stored in 10% formalin solution for further assessment.
Accurately weighed samples of the tissues to be determined (90–120 mg for liver, and 50–80 mg for heart and spleen) were digested in 1.5 mL of concentrated H2SO4 at 60°C for two days. Samples were vortex mixed and initially diluted 12 times using 2M HCl and filtered using a 0.45 μm PTFE syringe filters. Further dilutions were made if necessary and as appropriate upon sample measurement. Samples were read on Aurora AI1200 atomic absorption spectrophotometer at the specific wavelength of iron. FeCl3 standard solution 1000 μg/mL (Scharlau, Spain) was used to prepare calibration curve solutions. Proper blank samples were prepared along with the calibration curve of standard iron solution. Linearity was established in the range 0.1–8 µg/mL, with a linearity coefficient > 0.99. A typical calibration equation was […]. For statistical analysis, the potential existence of a significant difference between the averages of two groups, a t-test was employed using GraphPad software.

On the set-up of series [3]: method as in PMID 10508341, doi:10.1002/ejic.200400363. Conditions: practically measured; cited from earlier work.
Series [4] is described as follows: Level of DFX in plasma of iron-overloaded rats (HPLC). Conditions: male, Wistar, rat, (SD), N = 8. Format: in vivo. As for the experimental part:
as §1, with “Liver, heart, kidney, spleen, and the whole gastrointestinal tract (GIT) of all animals were collected and immediately stored in 10% formalin solution for further assessment.” left out
DFX was determined in plasma and GIT content using a slightly modified HPLC method from that employed in the solubility studies. […]
The method was properly validated for selectivity, precision, accuracy, and linearity. […] However, CP could not be determined by this method as it was coeluted early with other components of the plasma. […]

Series [5] is described as follows: Apparent octanol/H2O partition coefficient. Format: physicochemical. Particulars: (±SD) in brackets, n = 3. On the procedure: (§2) Excess solid of each compound to be tested was added to 6 mL of either phosphate buffer (pH 6.8), acetate buffer (pH 4.5), or 0.1 M HCl and left on a shaker water bath (37°C) for 24 h. One mL was centrifuged for 10 min, and 100 μL of the supernatant was properly diluted with the mobile phase (1:4) before being injected onto HPLC. For determination of octanol/H2O PC, 0.6 mL of the supernatant solution was transferred to a new tube containing 2 mL of octanol. Tubes containing the two layers of octanol and aqueous phase were kept on shaker water bath (37°C) for 24 h. Aliquots of aqueous layer were properly diluted with the mobile phase before being injected onto HPLC. The concentration of the drug in octanol layer was calculated by difference.

Series [6] can be described thus: Saturation solubility, shake-flask with HPLC. Format: physicochemical. Particulars: (±SD) in brackets, n = 3. On the procedure:
The molar ratio of association between iron and either of the drugs was determined by completely dissolving 2.7 mg of the metal complex products in 10 mL of a mixture of butanol, DMSO, and DMF (3:5:2). Solutions were then diluted twice in DMSO and five times in mobile phase before being injected into HPLC. The developed HPLC method was validated for this purpose and for the determination of solubility and partition coefficients (PCs). The optimum conditions developed comprised a phenyl column (4.6 mm ID; 150 mm·L; Thermo Scientific Hypersil) with a mobile phase consisting of 34% acetonitrile in a 50 mM phosphate buffer. The mobile phase mixture contained 0.032% citric acid, 0.02% EDTA, 0.032% hydroxylamine HCl, and 0.07% trimethylamine, with the overall pH adjusted to 3.7. The mobile phase was delivered isocratically at a flow rate of 1.2 mL/min, and chromatograms monitored at 290 nm.
as §2

Series [7] has as its system iron-overloaded rat model. Briefly: Histological assessment of organs (H&E and Pearl's stain for iron deposits). Format: in vivo, Wistar rats. On the procedure:
as §1, with “Blood samples were collected from animals using the orbital venous plexus bleeding method with the aid of ether anesthesia in special EDTA tubes on days 1, 3, and 6 after initiation of the drug treatment. Blood samples were centrifuged, and plasma was collected in Eppendorf tubes and kept at −80°C until time of analysis for DFX. On the sixth day of the treatment, animals were sacrificed by cervical dislocation with the aid of mild anesthesia. Liver, heart, kidney, spleen, and the whole gastrointestinal tract (GIT) of all animals were collected and immediately stored in 10% formalin solution for further assessment.” left out

Consider `O=C(O)c1ccc(-n2nc(-c3ccccc3O)nc2-c2ccccc2O)cc1` [DFX, Deferasirox], for which the “Affinity of DFX to Fe^2+” value in series [1] was “very low affinity”. Moreover, the “Content of iron in dried tissue” value in series [2] (dried blood, 3 days after initiation of chelation therapy) was 4.73 (0.2) mg/100g of tissue; in series [2] (dried blood, 6 days after initiation of chelation therapy) it was 4.94 (0.2) mg/100g of tissue; in series [2] (heart, after 6 days of treatment) it was 50.3 (2.7) mg/100g of tissue; in series [2] (liver, after 6 days of treatment), 162.6 (10.1) mg/100g of tissue; in series [2] (spleen, after 6 days of treatment), 168.8 (9.8) mg/100g of tissue. In series [3], the “Formation constants of DFX to Fe^3+” value is 10^37-10^38. The concentration at 1 day in series [4] (1 day after start of drugs in food (30 mg/kg daily oral)) worked out at 1200 ng/mL. In series [4] (3 days after start of drugs in food (30 mg/kg daily oral)), the concentration at 3 day came out at 10700 ng/mL. In series [4] (6 days after start of drugs in food (30 mg/kg daily oral)), the concentration at 6 day is 9700 ng/mL. Further, the Apparent partition coefficient in series [5] (pH 4.5, 37°C) was 2.1 (5.7); in series [5] (pH 6.8, 37°C), 7.9 (1.11). Also, the solubility at 24 h in series [6] (0.1 M HCl, pH 1.2, pH 1.2 (0.1 M HCl), 37°C) amounted to 9.9 µg/mL (≈ 26.5 µM); in series [6] (acetate buffer, pH 4.5, pH 4.5 acetate buffer, 37°C), 19.1 µg/mL (≈ 51.2 µM); in series [6] (phosphate buffer, 37 °C, pH 6.8, aqueous buffer, thermodynamic from solid, pH 6.8 phosphate buffer), 140 µg/mL (≈ 375 µM). Further, in series [6] (pH 6.8 phosphate buffer, 37°C, 24 h), the Solubility was 140.8 (1.9) μg/mL. Moreover, the “Iron deposition in spleen tissue (Pearl's stain)” value in series [7] (compared with the combined treatment group and the control group, seen in six out of eight animals) is on record as “clearly higher levels of deposited iron”. The “Iron deposition in liver tissue (Pearl's stain)” value in series [7] (compared with the combined treatment group, seen in six of eight animals) is reported as “higher level of iron deposition”.

The solubility is how much of the substance goes into solution per volume. The low end stands for little dissolved substance, the high end for much dissolved substance.
